Laboratory results from patent US8952024B2, “Herbicidal pyrimidone derivatives” (E I du Pont de Nemours and Company, priority 2009, dated 2015).

Legend:
Test in all cases: Test B pre-/postemergence plant response
Format in all cases: in vivo
[1] = system: Italian ryegrass (Lolium multiflorum); conditions: for Ryegrass, Italian plant response rating (0 to 100 scale): postemergence, 0 is no effect, 100 is complete control
How it was run: (§1)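 Visually scored on a 0 to 100 scale after 13 to 15 days in greenhouse versus controls. Treatments were preemergence on seeded loam/sand soil and postemergence on 1- to 4-leaf plants.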

[2] = system: bermudagrass (Cynodon dactylon); conditions: for Bermudagrass plant response rating (0 to 100 scale): 0 is no effect
How it was run: as §1

corn (Zea mays) = conditions: for Corn plant response rating (0 to 100 scale): 0 is no effect
How it was run: as §1

[3] = system: downy bromegrass (Bromus tectorum); conditions: for Bromegrass, Downy plant response rating (0 to 100 scale): 0 is no effect
How it was run: as §1

[4] = system: giant foxtail (Setaria faberii); conditions: for Foxtail, Giant plant response rating (0 to 100 scale): 0 is no effect
How it was run: as §1

[5] = system: goosegrass (Eleusine indica); conditions: for Goosegrass plant response rating (0 to 100 scale): 0 is no effect
How it was run: as §1

[6] = system: green foxtail (Setaria viridis); conditions: for Foxtail, Green plant response rating (0 to 100 scale): 0 is no effect
How it was run: as §1

[7] = system: johnsongrass (Sorghum halepense); conditions: for Johnsongrass plant response rating (0 to 100 scale): 0 is no effect
How it was run: as §1

[8] = system: large crabgrass (Digitaria sanguinalis); conditions: for Crabgrass, Large plant response rating (0 to 100 scale): 0 is no effect
How it was run: as §1

[9] = system: morningglory (Ipomoea coccinea); conditions: for Morningglory plant response rating (0 to 100 scale): 0 is no effect
How it was run: as §1

[10] = system: ragweed (common ragweed, Ambrosia elatior); conditions: for Ragweed plant response rating (0 to 100 scale): postemergence, 0 is no effect, 100 is complete control
How it was run: as §1

[11] = system: woolly cupgrass (Eriochloa villosa); conditions: for Cupgrass, Woolly plant response rating (0 to 100 scale): 0 is no effect
How it was run: as §1

[12] = system: yellow nutsedge (Cyperus esculentus); conditions: for Nutsedge, Yellow plant response rating (0 to 100 scale): 0 is no effect
How it was run: as §1

[13] = Postemergence, 31 g ai/ha, 0 to 100 scale (0 no effect, 100 complete control)
[14] = Postemergence, 125 g ai/ha, scale 0 to 100 (0 no effect, 100 complete control)
[15] = Postemergence, 250 g ai/ha, scale 0 to 100 (0 no effect, 100 complete control), 13 to 15 days
[16] = 62 g ai/ha, postemergence, 100 is complete control, 13 to 15 days
[17] = Postemergence, 250 g ai/ha, scale 0 to 100 (0 no effect, 100 complete control)
[18] = Preemergence, 31 g ai/ha, scale 0 to 100 (0 no effect, 100 complete control)
[19] = Preemergence, 62 g ai/ha, scale 0 to 100 (0 no effect, 100 complete control)
[20] = Preemergence, 125 g ai/ha, scale 0 to 100, 0 no effect, 100 complete control
[21] = Preemergence, 250 g ai/ha, 0 to 100 scale
[22] = 31 g ai/ha, postemergence, scale 0 to 100, 0 is no effect, 100 is complete control

CCCn1c(-c2cccc(Br)c2)ncc(C(=O)C2=C(O)CCCC2=O)c1=O [Compound 141]
5: Plant response rating, Ryegrass, Italian [1, 15] | Bromegrass, Downy plant response rating (0 to 100 scale) [3, 16]
65: Plant response rating, Goosegrass [5, 13] | Plant response rating, Johnsongrass [7, 15] | Plant response rating, Morningglory [9, 15] | Plant response rating, Ragweed [10, 13] | Cupgrass, Woolly plant response rating (0 to 100 scale) [11, 16] | Plant response rating, Cupgrass, Woolly [11, 13] | Plant response rating, Cupgrass, Woolly [11, 14]
10: Plant response rating, Bromegrass, Downy [3, 14] | Nutsedge, Yellow plant response rating (0 to 100 scale) [12, 16]
15: Johnsongrass plant response rating (0 to 100 scale) [7, 16] | Plant response rating, Johnsongrass [7, 13]
70: Plant response rating, Crabgrass, Large [8, 13] | Plant response rating, Cupgrass, Woolly [11, 15]
75: Foxtail, Giant plant response rating (0 to 100 scale) [4, 16] | Plant response rating, Foxtail, Giant [4, 13] | Goosegrass plant response rating (0 to 100 scale) [5, 16] | Plant response rating, Goosegrass [5, 14] | Foxtail, Green plant response rating (0 to 100 scale) [6, 16] | Crabgrass, Large plant response rating (0 to 100 scale) [8, 16] | Ragweed plant response rating (0 to 100 scale) ([10]; 62 g ai/ha, 13 to 15 days)
90: Plant response rating, Bermudagrass [2, 15] | Plant response rating, Foxtail, Green [6, 14] | Plant response rating, Foxtail, Green [6, 15]
45: Corn plant response rating (0 to 100 scale) (corn (Zea mays); [16]) | Plant response rating, Corn (corn (Zea mays); [14]) | Plant response rating, Corn (corn (Zea mays); [15]) | Plant response rating, Bromegrass, Downy [3, 15]
60: Morningglory plant response rating (0 to 100 scale) [9, 16] | Plant response rating, Morningglory [9, 13] | Plant response rating, Morningglory [9, 14] | Plant response rating, Nutsedge, Yellow [12, 14] | Plant response rating, Nutsedge, Yellow [12, 15]
0: Ryegrass, Italian plant response rating (0 to 100 scale) ([1]; 62 g ai/ha, 13 to 15 days) | Plant response rating, Ryegrass, Italian [1, 13] | Plant response rating, Ryegrass, Italian [1, 14] | Plant response rating, Corn (corn (Zea mays); [13]) | Plant response rating, Bromegrass, Downy [3, 13] | Plant response rating, Nutsedge, Yellow [12, 13]
85: Bermudagrass plant response rating (0 to 100 scale) [2, 16] | Plant response rating, Bermudagrass [2, 14] | Plant response rating, Foxtail, Giant [4, 15] | Plant response rating, Crabgrass, Large [8, 15] | Plant response rating, Ragweed [10, 14]
95: Plant response rating, Ragweed [10, 15]
80: Plant response rating, Bermudagrass [2, 13] | Plant response rating, Foxtail, Giant [4, 14] | Plant response rating, Goosegrass [5, 15] | Plant response rating, Crabgrass, Large [8, 14]
50: Plant response rating, Foxtail, Green [6, 13] | Plant response rating, Johnsongrass [7, 14]

COCCn1c(-c2cc(F)cc(F)c2)ncc(C(=O)C2=C(O)CCCC2=O)c1=O [Compound 119]
80: Plant response rating, Johnsongrass [7, 17] | Plant response rating, Ragweed [10, 18] | Plant response rating, Ragweed [10, 19]
45: Corn plant response rating (0 to 100 scale) (corn (Zea mays); [16])
0: Plant response rating, Corn (corn (Zea mays); [18]) | Plant response rating, Bromegrass, Downy [3, 18]
10: Plant response rating, Bromegrass, Downy [3, 22] | Plant response rating, Johnsongrass [7, 22] | Plant response rating, Morningglory [9, 22] | Plant response rating, Nutsedge, Yellow [12, 22]
30: Ryegrass, Italian plant response rating (0 to 100 scale) ([1]; 62 g ai/ha, 13 to 15 days) | Bromegrass, Downy plant response rating (0 to 100 scale) [3, 16]
100: Plant response rating, Ryegrass, Italian [1, 18] | Plant response rating, Ryegrass, Italian [1, 19] | Plant response rating, Ryegrass, Italian [1, 20] | Ryegrass, Italian plant response rating [1, 21] | Plant response rating, Bermudagrass [2, 18] | Plant response rating, Bermudagrass [2, 19] | Plant response rating, Bermudagrass [2, 20] | Bermudagrass plant response rating ([2]; Preemergence, 250 g ai/ha, 0 to 100 scale, 0 no effect, 100 complete control) | Foxtail, Giant plant response rating [4, 21] | Plant response rating, Goosegrass [5, 18] | Plant response rating, Goosegrass [5, 19] | Plant response rating, Goosegrass [5, 20] | Goosegrass plant response rating [5, 21] | Plant response rating, Foxtail, Green [6, 17] | Plant response rating, Foxtail, Green [6, 19] | Plant response rating, Foxtail, Green [6, 20] | Foxtail, Green plant response rating [6, 21] | Plant response rating, Crabgrass, Large [8, 18] | Plant response rating, Crabgrass, Large [8, 19] | Plant response rating, Crabgrass, Large [8, 20] | Crabgrass, Large plant response rating [8, 21] | Plant response rating, Cupgrass, Woolly [11, 17] | Cupgrass, Woolly plant response rating [11, 21]
98: Bermudagrass plant response rating (0 to 100 scale) [2, 16] | Plant response rating, Bermudagrass [2, 14] | Plant response rating, Bermudagrass [2, 17] | Plant response rating, Ragweed [10, 17] | Cupgrass, Woolly plant response rating (0 to 100 scale) [11, 16] | Plant response rating, Cupgrass, Woolly [11, 14] | Plant response rating, Nutsedge, Yellow [12, 20] | Nutsedge, Yellow plant response rating [12, 21]
65: Plant response rating, Cupgrass, Woolly [11, 18] | Plant response rating, Nutsedge, Yellow [12, 14]
90: Foxtail, Green plant response rating (0 to 100 scale) [6, 16]
70: Plant response rating, Corn (corn (Zea mays); [17])
85: Plant response rating, Ryegrass, Italian [1, 17] | Plant response rating, Bromegrass, Downy [3, 17] | Foxtail, Giant plant response rating (0 to 100 scale) [4, 16] | Plant response rating, Foxtail, Giant [4, 19] | Plant response rating, Goosegrass [5, 14] | Plant response rating, Foxtail, Green [6, 22] | Plant response rating, Johnsongrass [7, 19] | Crabgrass, Large plant response rating (0 to 100 scale) [8, 16]
60: Plant response rating, Ryegrass, Italian [1, 14] | Plant response rating, Corn (corn (Zea mays); [14]) | Plant response rating, Bromegrass, Downy [3, 14] | Morningglory plant response rating (0 to 100 scale) [9, 16] | Plant response rating, Morningglory [9, 18]
20: Plant response rating, Corn (corn (Zea mays); [22])
50: Plant response rating, Corn (corn (Zea mays); [20]) | Corn plant response rating (corn (Zea mays); [21]) | Plant response rating, Bromegrass, Downy [3, 19] | Plant response rating, Johnsongrass [7, 18] | Nutsedge, Yellow plant response rating (0 to 100 scale) [12, 16]
75: Plant response rating, Bermudagrass [2, 22] | Plant response rating, Foxtail, Giant [4, 22] | Plant response rating, Goosegrass [5, 22] | Goosegrass plant response rating (0 to 100 scale) [5, 16] | Plant response rating, Johnsongrass [7, 14] | Plant response rating, Crabgrass, Large [8, 22] | Ragweed plant response rating (0 to 100 scale) ([10]; 62 g ai/ha, 13 to 15 days) | Plant response rating, Cupgrass, Woolly [11, 22] | Plant response rating, Cupgrass, Woolly [11, 19] | Plant response rating, Nutsedge, Yellow [12, 17] | Plant response rating, Nutsedge, Yellow [12, 18]
95: Plant response rating, Foxtail, Giant [4, 14] | Plant response rating, Foxtail, Giant [4, 17] | Plant response rating, Foxtail, Giant [4, 20] | Plant response rating, Goosegrass [5, 17] | Plant response rating, Foxtail, Green [6, 14] | Plant response rating, Foxtail, Green [6, 18] | Plant response rating, Johnsongrass [7, 20] | Johnsongrass plant response rating [7, 21] | Plant response rating, Crabgrass, Large [8, 14] | Plant response rating, Crabgrass, Large [8, 17] | Plant response rating, Morningglory [9, 14] | Plant response rating, Morningglory [9, 17] | Plant response rating, Morningglory [9, 19] | Plant response rating, Morningglory [9, 20] | Morningglory plant response rating [9, 21] | Plant response rating, Ragweed [10, 14] | Plant response rating, Ragweed [10, 20] | Ragweed plant response rating [10, 21] | Plant response rating, Cupgrass, Woolly [11, 20] | Plant response rating, Nutsedge, Yellow [12, 19]
40: Plant response rating, Corn (corn (Zea mays); [19]) | Johnsongrass plant response rating (0 to 100 scale) [7, 16]
55: Plant response rating, Bromegrass, Downy [3, 20] | Bromegrass, Downy plant response rating [3, 21] | Plant response rating, Foxtail, Giant [4, 18]
